Data set [1] deals with T1, Rat NHE-3 (Rattus norvegicus, UniProt P26433).
T1 construct: expressed in transfected cells; host or cells: Opossum kidney (OK) cells (ATCC), transfected by electroporation
As to the kind of experiment: Cell-based assay of NHE-3 activity (rat NHE-3 prompt inhibition). The note with it: OK cells with rat NHE-3 gene, compound present during pH recovery; for IC50: read-out: Rat NHE3 pIC50 (prompt) (converted). The gist of the method:
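Opossum kidney cells electroporated with rat or human NHE-3, loaded with 5 μM BCECF-AM in NH4Cl-HEPES pH 7.4 for 30 min at RT, then acidified 10 min in Na+-free choline HEPES. Na+-dependent pH recovery rates from BCECF fluorescence, averaged over ≥2 replicates, gave pIC50.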

In data set [2] the target is T1, Rat NHE-3. As to the kind of experiment: Cell-based assay of NHE-3 activity (persistent inhibition, after washout). Conditions: OK cells with rat NHE-3 gene, 60 min incubation, recovery initiated 40 min after compound washout; for IC50: read-out: Rat NHE3 pIC50 (persistent) (converted). The gist of the method: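 OK cells transiently expressing rat NHE-3 were exposed to 0-30 μM compound in NaCl-HEPES pH 7.4 for 60 min, then washed free of drug before NH4Cl/BCECF-AM loading and acid-loading in Na+-free choline buffer. Na+-dependent pH recovery rates (mean of ≥2 replicates) gave pIC50.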

Data set [3] deals with absorption of sodium from the intestinal lumen. As to the kind of experiment: Inhibition of intestinal sodium absorption (urinary sodium and fecal form). Type of data set: in vivo, Sprague-Dawley rats. Conditions: rat; for response vs control in vivo at 3 mg/kg: 3 mg/kg oral gavage, urine 16 h post-dose, asterisks = significance vs vehicle (*P<0.05, **P<0.01, ***P<0.001), read-out: uNa (% of vehicle). The gist of the method:
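Sprague-Dawley rats (8 weeks, n=6) dosed by oral gavage with compound or water vehicle (10 mL/kg) in late afternoon, then housed in metabolic cages. Over 16 h, urinary sodium measured by ion chromatography and expressed as % of vehicle mean; fecal form scored 1–5, averaged from two observations.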

Data set [4] in a line: Fecal recovery. It is filed as in vivo, Sprague Dawley rats. Conditions: rat, 1 mg/kg oral gavage; for dose excreted: male, Sprague-Dawley, faeces. The procedure: Three male Sprague Dawley rats were administered 1 mg/kg test compound by oral gavage. Feces were collected from study animals from 0-48 or 0-72 hours after dosing, dried by lyophilization, and homogenized. Replicate aliquots of 40-60 mg each were subjected to extraction/protein precipitation with 7:1 acetonitrile:water and centrifuged. Supernatants were diluted 1:10 in 50:50 acetonitrile:water prior to analysis by LC-MS/MS. Compound concentrations, determined by interpolation from a standard calibration curve prepared in blank feces matrix, were converted to the percentage of dosed material recovered by taking into account the total collected fecal matter. The percent recovery for each rat was reported as the mean of the calculations from replicate samples. The overall percent recovery (Fecal Recovery [%]) was reported as the mean percent recovery from three rats. Accurate quality control sample recoveries were confirmed in each run, and extraction efficiency was periodically verified.

T1 sequence (P26433 29-831): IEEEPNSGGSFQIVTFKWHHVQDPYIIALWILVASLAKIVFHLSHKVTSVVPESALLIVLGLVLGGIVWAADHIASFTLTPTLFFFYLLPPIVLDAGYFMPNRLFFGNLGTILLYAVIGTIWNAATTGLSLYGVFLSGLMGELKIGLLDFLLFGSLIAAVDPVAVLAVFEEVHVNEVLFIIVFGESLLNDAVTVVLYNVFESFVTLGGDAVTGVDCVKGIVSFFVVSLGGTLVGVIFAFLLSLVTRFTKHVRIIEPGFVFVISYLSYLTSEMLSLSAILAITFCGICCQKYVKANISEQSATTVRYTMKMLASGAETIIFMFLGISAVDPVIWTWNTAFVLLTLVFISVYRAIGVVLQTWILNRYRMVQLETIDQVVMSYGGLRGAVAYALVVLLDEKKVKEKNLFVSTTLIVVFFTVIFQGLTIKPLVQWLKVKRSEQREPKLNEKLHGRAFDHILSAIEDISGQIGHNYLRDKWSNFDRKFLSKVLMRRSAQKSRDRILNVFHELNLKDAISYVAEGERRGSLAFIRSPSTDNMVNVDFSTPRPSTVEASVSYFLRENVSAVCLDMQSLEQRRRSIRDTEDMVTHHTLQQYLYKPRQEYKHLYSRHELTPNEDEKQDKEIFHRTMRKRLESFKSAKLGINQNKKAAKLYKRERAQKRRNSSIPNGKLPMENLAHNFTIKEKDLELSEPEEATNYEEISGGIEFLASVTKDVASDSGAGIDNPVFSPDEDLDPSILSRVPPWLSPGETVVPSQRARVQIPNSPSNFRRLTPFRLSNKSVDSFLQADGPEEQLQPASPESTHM

On to `CN1Cc2c(Cl)cc(Cl)cc2[C@H](c2cccc(S(=O)(=O)NCCOCCOCCNC(=O)CCC(N)(CCC(=O)NCCOCCOCCNS(=O)(=O)c3cccc([C@@H]4CN(C)Cc5c(Cl)cc(Cl)cc54)c3)CCC(=O)NCCOCCOCCNS(=O)(=O)c3cccc([C@@H]4CN(C)Cc5c(Cl)cc(Cl)cc54)c3)c2)C1` [Example 2, 4-amino-N^1,N^7-bis(2-(2-(2-(3-((S)-6,8-dichloro-2-methyl-1,2,3,4-tetrahydroisoquinolin-4-yl)phenylsulfonamido)ethoxy)ethoxy)ethyl)-4-(3-(2-(2-(2-(3-((S)-6,8-dichloro-2-methyl-1,2,3,4-tetrahydroisoquinolin-4-yl)phenylsulfonamido)ethoxy)ethoxy)ethylamino)-3-oxopropyl)heptanediamide], for which the IC50 in data set [1] and in data set [2] was less than 100 nM each time. The response vs control in vivo at 3 mg/kg in data set [3] was less than 35%. In addition, the dose excreted in data set [4] (collection time 48 h) came to 87%.

Regarding `CN1Cc2c(Cl)cc(Cl)cc2[C@H](c2cccc(S(=O)(=O)NCCOCCOCCNC(=O)CCC(CCC(=O)NCCOCCOCCNS(=O)(=O)c3cccc([C@@H]4CN(C)Cc5c(Cl)cc(Cl)cc54)c3)(CCC(=O)NCCOCCOCCNS(=O)(=O)c3cccc([C@@H]4CN(C)Cc5c(Cl)cc(Cl)cc54)c3)NC(=O)NCCS(=O)(=O)O)c2)C1` [Example 3], the IC50 in data set [1] and in data set [2] was less than 100 nM throughout. The response vs control in vivo at 3 mg/kg in data set [3] was less than 35%. The compound also came in with a dose excreted in data set [4] (collection time 72 h) of 110%.

As for `CN1Cc2c(Cl)cc(Cl)cc2[C@H](c2cccc(S(=O)(=O)NCCOCCOCCNC(=O)CCC(CCC(=O)NCCOCCOCCNS(=O)(=O)c3cccc([C@@H]4CN(C)Cc5c(Cl)cc(Cl)cc54)c3)(CCC(=O)NCCOCCOCCNS(=O)(=O)c3cccc([C@@H]4CN(C)Cc5c(Cl)cc(Cl)cc54)c3)N(C)C)c2)C1` [Example 4, N^1,N^7-bis(2-(2-(2-(3-((S)-6,8-dichloro-2-methyl-1,2,3,4-tetrahydroisoquinolin-4-yl)phenylsulfonamido)ethoxy)ethoxy)ethyl)-4-(3-(2-(2-(2-(3-((S)-6,8-dichloro-2-methyl-1,2,3,4-tetrahydroisoquinolin-4-yl)phenylsulfonamido)ethoxy)ethoxy)ethylamino)-3-oxopropyl)-4-(dimethylamino)heptanediamide], the IC50 in data set [1] and in data set [2] was less than 100 nM throughout. Moreover, the FFS in data set [3] (fecal form score, scale 1 (normal pellet) to 5 (liquid fecal streams), group average, 3 mg/kg oral, 16 h post-dose, vehicle = 1) came to 2. The response vs control in vivo at 3 mg/kg in data set [3] was less than 35%.

Consider `CN1Cc2c(Cl)cc(Cl)cc2[C@H](c2cccc(S(=O)(=O)NCCOCCOCCNC(=O)CCC(CCC(=O)NCCOCCOCCNS(=O)(=O)c3cccc([C@@H]4CN(C)Cc5c(Cl)cc(Cl)cc54)c3)(CCC(=O)NCCOCCOCCNS(=O)(=O)c3cccc([C@@H]4CN(C)Cc5c(Cl)cc(Cl)cc54)c3)NC(=O)COCC(=O)O)c2)C1` [Example 6, 1-(3-((S)-6,8-dichloro-2-methyl-1,2,3,4-tetrahydroisoquinolin-4-yl)phenylsulfonamido)-13,13-bis(3-(2-(2-(2-(3-((S)-6,8-dichloro-2-methyl-1,2,3,4-tetrahydroisoquinolin-4-yl)phenylsulfonamido)ethoxy)ethoxy)ethylamino)-3-oxopropyl)-10,15-dioxo-3,6,17-trioxa-9,14-diazanonadecan-19-oic Acid], for which the IC50 in data set [1] and in data set [2] was less than 100 nM in each case. The response vs control in vivo at 3 mg/kg in data set [3] is less than 35%. In data set [4] (collection time 48 h), this compound showed a dose excreted of 51.5%.

As for `CN1Cc2c(Cl)cc(Cl)cc2[C@H](c2cccc(S(=O)(=O)NCCOCCOCCNC(=O)CCC(CCC(=O)NCCOCCOCCNS(=O)(=O)c3cccc([C@@H]4CN(C)Cc5c(Cl)cc(Cl)cc54)c3)(CCC(=O)NCCOCCOCCNS(=O)(=O)c3cccc([C@@H]4CN(C)Cc5c(Cl)cc(Cl)cc54)c3)NC(=O)NCC(=O)O)c2)C1` [Example 7, 18-(3-((S)-6,8-dichloro-2-methyl-1,2,3,4-tetrahydroisoquinolin-4-yl)phenylsulfonamido)-6,6-bis(3-(2-(2-(2-(3-((S)-6,8-dichloro-2-methyl-1,2,3,4-tetrahydroisoquinolin-4-yl)phenylsulfonamido)ethoxy)ethoxy)ethylamino)-3-oxopropyl)-4,9-dioxo-13,16-dioxa-3,5,10-triazaoctadecan-1-oic acid], the IC50 in data set [1] and in data set [2] was less than 100 nM in each case. Besides, the response vs control in vivo at 3 mg/kg in data set [3] was less than 35%. The dose excreted in data set [4] (collection time 48 h) turned out to be 83.2%.

As for `CN1Cc2c(Cl)cc(Cl)cc2[C@H](c2cccc(S(=O)(=O)NCCOCCOCCNC(=O)CCC(CCC(=O)NCCOCCOCCNS(=O)(=O)c3cccc([C@@H]4CN(C)Cc5c(Cl)cc(Cl)cc54)c3)(CCC(=O)NCCOCCOCCNS(=O)(=O)c3cccc([C@@H]4CN(C)Cc5c(Cl)cc(Cl)cc54)c3)NC(=O)NC(CO)(CO)CO)c2)C1` [Example 11, N^1,N^7-bis(2-(2-(2-(3-((S)-6,8-dichloro-2-methyl-1,2,3,4-tetrahydroisoquinolin-4-yl)phenylsulfonamido)ethoxy)ethoxy)ethyl)-4-(3-(2-(2-(2-(3-((S)-6,8-dichloro-2-methyl-1,2,3,4-tetrahydroisoquinolin-4-yl)phenylsulfonamido)ethoxy)ethoxy)ethylamino)-3-oxopropyl)-4-(3-(1,3-dihydroxy-2-(hydroxymethyl)propan-2-yl)ureido)heptanediamide], the IC50 in data set [1] was more than 10000 nM; in data set [2], less than 100 nM. For the same compound, the response vs control in vivo at 3 mg/kg in data set [3] is 35 to 75%. In data set [4] (collection time 48 h), the dose excreted worked out at 64.1%.

`CN(C)CC(=O)NC(CCC(=O)NCCOCCOCCNS(=O)(=O)c1cccc([C@@H]2CN(C)Cc3c(Cl)cc(Cl)cc32)c1)(CCC(=O)NCCOCCOCCNS(=O)(=O)c1cccc([C@@H]2CN(C)Cc3c(Cl)cc(Cl)cc32)c1)CCC(=O)NCCOCCOCCNS(=O)(=O)c1cccc([C@@H]2CN(C)Cc3c(Cl)cc(Cl)cc32)c1` [Example 14, N1,N7-bis(2-(2-(2-(3-((S)-6,8-dichloro-2-methyl-1,2,3,4-tetrahydroisoquinolin-4-yl)phenylsulfonamido)ethoxy)ethoxy)ethyl)-4-(3-(2-(2-(2-(3-((S)-6,8-dichloro-2-methyl-1,2,3,4-tetrahydroisoquinolin-4-yl)phenylsulfonamido)ethoxy)ethoxy)ethylamino)-3-oxopropyl)-4-(2-(dimethylamino)acetamido)heptanediamide]: the IC50 in data set [1] and in data set [2] was less than 100 nM in each case. For the same compound, the response vs control in vivo at 3 mg/kg in data set [3] is less than 35%. The compound also gave a dose excreted in data set [4] (collection time 72 h) of 75.3%.

Consider `CN1Cc2c(Cl)cc(Cl)cc2[C@H](c2cccc(S(=O)(=O)NCCOCCOCCNC(=O)CCC(CCC(=O)NCCOCCOCCNS(=O)(=O)c3cccc([C@@H]4CN(C)Cc5c(Cl)cc(Cl)cc54)c3)(CCC(=O)NCCOCCOCCNS(=O)(=O)c3cccc([C@@H]4CN(C)Cc5c(Cl)cc(Cl)cc54)c3)NC(=O)NCCN3CCOCC3)c2)C1` [Example 17, N^1,N^7-bis(2-(2-(2-(3-((S)-6,8-dichloro-2-methyl-1,2,3,4-tetrahydroisoquinolin-4-yl)phenylsulfonamido)ethoxy)ethoxy)ethyl)-4-(3-(2-(2-(2-(3-((S)-6,8-dichloro-2-methyl-1,2,3,4-tetrahydroisoquinolin-4-yl)phenylsulfonamido)ethoxy)ethoxy)ethylamino)-3-oxopropyl)-4-(3-(2-morpholinoethyl)ureido)heptanediamide], for which the IC50 in data set [1] and in data set [2] was less than 100 nM each time. Besides, the response vs control in vivo at 3 mg/kg in data set [3] is less than 35%. In data set [4] (collection time 72 h), this compound returned a dose excreted of 96.9%.

For the compound `CN1Cc2c(Cl)cc(Cl)cc2[C@H](c2cccc(S(=O)(=O)NCCOCCOCCNC(=O)CCC(CCC(=O)NCCOCCOCCNS(=O)(=O)c3cccc([C@@H]4CN(C)Cc5c(Cl)cc(Cl)cc54)c3)(CCC(=O)NCCOCCOCCNS(=O)(=O)c3cccc([C@@H]4CN(C)Cc5c(Cl)cc(Cl)cc54)c3)NC(=O)CCCC(=O)O)c2)C1` [Example 36], the “Rat NHE3 pIC50 (prompt)” value in data set [1] is “C (C NHE3 pIC50 > 7)”. Moreover, in data set [2], the “Rat NHE3 pIC50 (persistent)” value is “C (C NHE3 pIC50 > 7)”. Besides, the response vs control in vivo at 3 mg/kg in data set [3] is less than 35%. Further, the “Fecal Recovery” value in data set [4] (collection time 48 h) was 68%.

The record behind these values is patent US10385024B2, “Compounds and methods for inhibiting NHE-mediated antiport in the treatment of disorders associated with fluid retention or salt overload and gastrointestinal tract disorders” (Ardelyx, Inc., priority 2012, dated 2019).
